This test addresses T1, CCR2 (Homo sapiens, UniProt P41597).
T1 construct: host or cells: THP-1 human monocytic cells
T1 sequence (P41597 1-360 isoform P41597-2): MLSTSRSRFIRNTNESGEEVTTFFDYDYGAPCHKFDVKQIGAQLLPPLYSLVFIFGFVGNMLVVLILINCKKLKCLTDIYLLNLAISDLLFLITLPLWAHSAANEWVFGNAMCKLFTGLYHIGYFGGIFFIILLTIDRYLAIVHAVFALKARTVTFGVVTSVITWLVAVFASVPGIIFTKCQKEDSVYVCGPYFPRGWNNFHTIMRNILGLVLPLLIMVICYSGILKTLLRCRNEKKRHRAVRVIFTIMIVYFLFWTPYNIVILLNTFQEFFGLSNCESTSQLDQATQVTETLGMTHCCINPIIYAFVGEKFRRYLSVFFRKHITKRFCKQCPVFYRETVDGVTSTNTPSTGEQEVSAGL
In words: MCP-1 Receptor Binding Assay in THP-1 Cells. To be noted: 0.5 nM 125I labeled MCP-1, 2 hours at 30° C., read-out: Inhibition of MCP-1 Binding IC50 CCR2 Binding. The method, then:
MCP-1 Receptor Binding Assay in THP-1 Cells
Human monocytic cell line THP-1 cells were obtained from American Type Culture Collection (Manassas, Va., USA). […] The cell density was maintained […].
1 μM cold MCP-1 was used for nonspecific binding.
Turning to `O=C(O)Cc1ccc(C2CCC(N3CC(NC(=O)CNC(=O)c4cccc(C(F)(F)F)c4)C3)CC2)cc1` (stereo not shown) [Example 25, [4-(4-{3-[2-(3-Trifluoromethyl-benzoylamino)-acetylamino]-azetidin-1-yl}-cyclohexyl)-phenyl]-acetic acid], the IC50 stood at 320 nM.
On to `Nc1cccc(C2(O)CCC(N3CC(NC(=O)CNC(=O)c4cccc(C(F)(F)F)c4)C3)CC2)c1` (single isomer, unassigned) [Example 58a, N-({1-[4-(3-Amino-phenyl)-4-hydroxy-cyclohexyl]-azetidin-3-ylcarbamoyl}-methyl)-3-trifluoromethyl-benzamide], for which the IC50 is 52 nM.
Regarding `O=C(CNC(=O)c1ccc([N+](=O)[O-])c(C(F)(F)F)c1)NC1CN(C2CCC(c3ccccc3)CC2)C1` (stereo not shown) [Example 73, 4-Nitro-N-{[1-(4-phenyl-cyclohexyl)-azetidin-3-ylcarbamoyl]-methyl}-3-trifluoromethyl-benzamide], the IC50 turned out to be 490 nM.
As for `CN(C)CCOc1ccc(C2CCC(N3CC(NC(=O)CNC(=O)c4cccc(C(F)(F)F)c4)C3)CC2)cc1` (stereo not shown) [Example 41, N-[(1-{4-[4-(2-Dimethylamino-ethoxy)-phenyl]-cyclohexyl}-azetidin-3-ylcarbamoyl)-methyl]-3-trifluoromethyl-benzamide], the concentration for half-maximal inhibition (IC50) worked out at 160 nM.
With `CC(C)(C)OC(=O)Nc1ccc(C2(O)CCC(N3CC(NC(=O)CNC(=O)c4cccc(C(F)(F)F)c4)C3)CC2)cc1` (stereo not shown) [Example 50, [4-(1-Hydroxy-4-{3-[2-(3-trifluoromethyl-benzoylamino)-acetylamino]-azetidin-1-yl}-cyclohexyl)-phenyl]-carbamic acid tert-butyl ester], the IC50 was determined as 230 nM.
For `Cn1c(=O)oc2ccc(C3(O)CCC(N4CC(NC(=O)CNC(=O)c5cccc(C(F)(F)F)c5)C4)CC3)cc21` (stereo not shown) [Example 63a, N-({1-[4-Hydroxy-4-(3-methyl-2-oxo-2,3-dihydro-benzooxazol-5-yl)-cyclohexyl]-azetidin-3-ylcarbamoyl}-methyl)-3-trifluoromethyl-benzamide], the IC50 amounted to 150 nM.
As for `COc1ccc(C2(N)CCC(N3CC(NC(=O)CNC(=O)c4cccc(C(F)(F)F)c4)C3)CC2)cc1` (stereo not shown) [Example 86, N-({1-[4-Amino-4-(4-methoxy-phenyl)-cyclohexyl]-azetidin-3-ylcarbamoyl}-methyl)-3-trifluoromethyl-benzamide], the IC50 worked out at 320 nM.
The same measure for `O=C(CNC(=O)c1cc(Br)cc(C(F)(F)F)c1)NC1CN(C2CCC(c3ccccc3)CC2)C1` (stereo not shown) [Example 77, 3-Bromo-N-{[1-(4-phenyl-cyclohexyl)-azetidin-3-ylcarbamoyl]-methyl}-5-trifluoromethyl-benzamide]: 380 nM.
As for `N#Cc1cccc(C2CCC(N3CC(NC(=O)CNC(=O)c4cccc(C(F)(F)F)c4)C3)CC2)c1` (single isomer, unassigned) [Example 8a, N-({1-[4-(3-Cyano-phenyl)-cyclohexyl]-azetidin-3-ylcarbamoyl}-methyl)-3-trifluoromethyl-benzamide], the IC50 came to 85 nM.
`COc1ccccc1C1(O)CCC(N2CC(NC(=O)CNC(=O)c3cccc(C(F)(F)F)c3)C2)CC1` (single isomer, unassigned) [Example 56a, N-({1-[4-Hydroxy-4-(2-methoxy-phenyl)-cyclohexyl]-azetidin-3-ylcarbamoyl}-methyl)-3-trifluoromethyl-benzamide]: the IC50 is 5200 nM.
In the case of `COc1ccc(C2CCC(N3CC(NC(=O)CNC(=O)c4cccc(C(F)(F)F)c4)C3)CC2)cc1` (single isomer, unassigned) [Example 7a, N-({1-[4-(4-Methoxy-phenyl)-cyclohexyl]-azetidin-3-ylcarbamoyl}-methyl)-3-trifluoromethyl-benzamide], the IC50 is 50 nM.
For the molecule `O=C(CNC(=O)c1cccc(C(F)(F)F)c1)NC1CN(C2CCC(c3cccc(C(=O)O)c3)CC2)C1` (stereo not shown) [Example 12, 3-(4-{3-[2-(3-Trifluoromethyl-benzoylamino)-acetylamino]-azetidin-1-yl}-cyclohexyl)-benzoic acid], the IC50 stood at 220 nM.
As for `NC1(c2ccc3c(c2)OCO3)CCC(N2CC(NC(=O)CNC(=O)c3cccc(C(F)(F)F)c3)C2)CC1` (single isomer, unassigned) [Example 85a, N-{[1-(4-Amino-4-benzo[1,3]dioxol-5-yl-cyclohexyl)-azetidin-3-ylcarbamoyl]-methyl}-3-trifluoromethyl-benzamide], the IC50 came to 280 nM.
As to `O=C(CNC(=O)c1cccc(C(F)(F)F)c1)NC1CN(C2CCC(c3ccc4c(c3)OCC4)CC2)C1` (single isomer, unassigned) [Example 3a, N-({1-[4-(2,3-Dihydro-benzofuran-6-yl)-cyclohexyl]-azetidin-3-ylcarbamoyl}-methyl)-3-trifluoromethylbenzamide], the IC50 turned out to be 45 nM.
Take `CS(=O)(=O)c1cccc(C2CCC(N3CC(NC(=O)CNC(=O)c4cccc(C(F)(F)F)c4)C3)CC2)c1` (single isomer, unassigned) [Example 14a, N-({1-[4-(3-Methanesulfonyl-phenyl)-cyclohexyl]-azetidin-3-ylcarbamoyl}-methyl)-3-trifluoromethyl-benzamide]: the IC50 was found to be 440 nM.
Consider `O=C(CNC(=O)c1ccc(F)c(C(F)(F)F)c1)NC1CN(C2CCC(c3ccccc3)CC2)C1` (single isomer, unassigned) [Example 71a, 4-Fluoro-N-{[1-(4-phenyl-cyclohexyl)-azetidin-3-ylcarbamoyl]-methyl}-3-trifluoromethyl-benzamide], for which the half-inhibitory concentration (IC50) was found to be 200 nM.
For `O=C(CNC(=O)c1cccc(C(F)(F)F)c1)NC1CN(C2CCC(c3ccc4oc(=O)[nH]c4c3)CC2)C1` (single isomer, unassigned) [Example 5a, N-({1-[4-(2-oxo-2,3-dihydro-benzooxazol-5-yl)-cyclohexyl]-azetidin-3-ylcarbamoyl}-methyl)-3-trifluoromethyl-benzamide], the half-maximal inhibitory concentration (IC50) is 9 nM.
Turning to `O=C(CNC(=O)c1cccc(C(F)(F)F)c1)NC1CN(C2CCC(O)(c3cccc(-c4nnn[nH]4)c3)CC2)C1` (stereo not shown) [Example 49, N-[(1-{4-Hydroxy-4-[3-(1H-tetrazol-5-yl)-phenyl]-cyclohexyl}-azetidin-3-ylcarbamoyl)-methyl]-3-trifluoromethyl-benzamide], the 50% inhibitory concentration (IC50) is 810 nM.
Regarding `O=C(CNC(=O)c1ccccc1)NC1CN(C2CCC(c3ccc4c(c3)OCO4)CC2)C1` (single isomer, unassigned) [Example 2a, N-{[1-(4-Benzo[1,3]dioxol-5-yl-cyclohexyl)-azetidin-3-ylcarbamoyl]-methyl}-benzamide], the IC50 was found to be 390 nM.
For the molecule “N-({1-[4-(4,4-bis-Methanesulfonylamino-phenyl)-cyclohexyl]-azetidin-3-ylcarbamoyl}-methyl)-3-trifluoromethyl-benzamide [Example 17]”, the IC50 is 27 nM.
With `COC(=O)COc1ccc(C2CCC(N3CC(NC(=O)CNC(=O)c4cccc(C(F)(F)F)c4)C3)CC2)cc1` (stereo not shown) [Example 43], the 50% inhibitory concentration (IC50) worked out at 38 nM.
Regarding `NC(=O)c1ccc(C2(O)CCC(N3CC(NC(=O)CNC(=O)c4cccc(C(F)(F)F)c4)C3)CC2)cc1` (single isomer, unassigned) [Example 55a, N-({1-[4-(4-benzamide)-4-hydroxy-cyclohexyl]-azetidin-3-ylcarbamoyl}-methyl)-3-trifluoromethyl-benzamide], the IC50 came to 5300 nM.
Take `O=C(CNC(=O)c1ccc(NCCO)c(C(F)(F)F)c1)NC1CN(C2CCC(c3ccccc3)CC2)C1` (stereo not shown) [Example 72, 4-(2-Hydroxy-ethylamino)-N-{[1-(4-phenyl-cyclohexyl)-azetidin-3-ylcarbamoyl]-methyl}-3-trifluoromethyl-benzamide]: the IC50 came to 400 nM.
In the case of `Cc1cccc(C2(O)CCC(N3CC(NC(=O)CNC(=O)c4cccc(C(F)(F)F)c4)C3)CC2)c1` (stereo not shown) [Example 60, N-{[1-(4-Hydroxy-4-m-tolyl-cyclohexyl)-azetidin-3-ylcarbamoyl]-methyl}-3-trifluoromethyl-benzamide], the IC50 was 100 nM.
Turning to `N#Cc1cccc(C2(O)CCC(N3CC(NC(=O)CNC(=O)c4cccc(C(F)(F)F)c4)C3)CC2)c1` (single isomer, unassigned) [Example 48a, N-({1-[4-(3-Cyano-phenyl)-4-hydroxy-cyclohexyl]-azetidin-3-ylcarbamoyl}-methyl)-3-trifluoromethyl-benzamide], the concentration for half-maximal inhibition (IC50) stood at 413 nM.
Turning to `COc1ccc(C(=O)NCC(=O)NC2CN(C3CCC(c4ccccc4)CC3)C2)cc1C(F)(F)F` (stereo not shown) [Example 67, 4-Methoxy-N-{[1-(4-phenyl-cyclohexyl)-azetidin-3-ylcarbamoyl]-methyl}-3-trifluoromethyl-benzamide], the IC50 came to 600 nM.
As for `C#Cc1cccc(C2(O)CCC(N3CC(NC(=O)CNC(=O)c4cccc(C(F)(F)F)c4)C3)CC2)c1` (single isomer, unassigned) [Example 51a, N-({1-[4-(3-Ethynyl-phenyl)-4-hydroxy-cyclohexyl]-azetidin-3-ylcarbamoyl}-methyl)-3-trifluoromethyl-benzamide], the IC50 was 228 nM.
As for `O=C(CNC(=O)c1cc([N+](=O)[O-])cc(C(F)(F)F)c1)NC1CN(C2CCC(c3ccccc3)CC2)C1` (stereo not shown) [Example 78, 3-Nitro-N-{[1-(4-phenyl-cyclohexyl)-azetidin-3-ylcarbamoyl]-methyl}-5-trifluoromethyl-benzamide], the IC50 was 1000 nM.

As a reminder, the IC50 is the concentration that gives 50% inhibition.

Values taken from patent US8513229B2, “4-Azetidinyl-1-phenyl-cyclohexane antagonists of CCR2” (Janssen Pharmaceutica NV, priority 2009, dated 2013).
